In patent US7314633B2, “Carboxylate-gated-nitroxide (CGN) compounds and compositions and methods of use thereof” (SynZyme Technologies LLC, priority 2001, dated 2008):

What was measured:
[1] = S-band EPR imaging of penetration and compartmentalization in human skin; format: in vivo; conditions: human volunteer forearm, 3 μL 100 mM in DMSO, topical, by eight hours
Procedure: Preliminary S-band EPR spectroscopy and imaging experiments using DETOPS were performed on the skin of a human volunteer. […] Five minutes later, when the deposited solution dried, a specially designed positioning holder with a 7 mm diameter well and bottom disk that locked into a well in the resonator cap was attached to the skin to fix this region of skin to the surface resonator See, “In vivo EPR Imaging of a Distribution and Metabolism of Nitroxide Radicals in Human Skin,” He et al., J. of Magnetic Resonance 148, 155-164 (2001). EPR and EPRI measurements were then started. Measurements on the volunteer were performed for 15 to 20 minutes periods after which there were 30-minute rest periods in which the volunteer removed the arm from the resonator and the magnet. This holder fixed the skin positioning and assured a constant filling factor of the loaded resonator. The positioning holder was left attached to the arm for the entire series of measurements lasting up to 8 hours.
Referring to FIG. 23, a color-coded image of CNO penetration and compartmentalization in human skin is shown. […] The measurements were performed using S-band (2.2 GHz) EPR imaging system with a specially designed surface resonator as described in He et al., J. of Magnetic Resonance 148, 155-164 (2001). The dotted line marks the surface of the skin. […]

hairless mice = tested on: hairless mice
Procedure: Topical application was daily 10 minutes prior to UVB radiation. UVB dose was 200 mJ/cm2 during 15 minutes. UVB lamp has spectrum distribution of 290-310 nm at 80% below 310 nm at 20%.
Same protocol as in example 13 was used for this study.

[2] = tested on: cultured rat cortical neurons; assay: SIN-1 (peroxynitrite generator) toxicity in cultured rat cortical neurons (MTT); format: cell-based; conditions: SIN-1 1 mM, compound added 15 minutes prior
Procedure: Primary neuronal cultures were made from forebrains of fetal rat pups (embryonic day 15). The cells were dispersed by repeated mechanical trituration in neuronal culture medium (MEM Eagle (Sigma, M4526), supplemented with glutamine (2 mM), penicilin-streptomycine (50 Units/ml-0.05 mg/ml), heat-inactivated horse serum (10%), fetal bovine serum (10%), glucose (0.5% or 28 mM). Following centrifugation (900 g; 5 min), the cells were placed onto poly-L-lysine-coated 96 well plates at a density of […]. Cytotoxicity was induced in the cells according to a published procedure (Carroll et al 2000). SIN-1 (3-morpholinosydnonimine, Sigma), a PN generator, was dissolved in 50 mM phosphate (pH 5.0) just prior to use, and added to each well to give the final concentration of 1 mM. […] Neuronal viability was quantitatively determined using the colorimetric MTT assay. MTT was added to each well such that the final concentration of the dye was 0.15 mg/ml. Plates were then returned to the incubator for 1 hour at which time unincorporated MTT was removed, and the plates allowed to air dry. The purple formazan product present in viable cells was then dissolved by adding acidified isopropanol (with 0.1 N HCl in) and the absorbance intensity (540 nm) was measured using a 96 well plate reader. % Control=(Test A540/Mean Control)×100%.

[3] = Inhibition of peroxynitrite-dependent nitration of HPA; format: biochemical; conditions: 1 mM HPA, 1 mM peroxynitrite, pH 6.5
Procedure: Peroxynitrite was made by a procedure described previously. Solution of 1 mM 4-hydroxyphenylacetic acid (HPA, Sigma) were made in 100 mM sodium phosphate at pH 6.5. […] Peroxynitrite was added at a final concentration of 1 mM to start the nitration. […] The nitration was followed spectrophotometrically at 405 nm. The concentration of 4-hydroxy-3-nitrophenylacetate was determined spectrophotometrically (430=4400 M^−1 cm^−1) after the pH of reaction mixtures were increased to 10-11 with NaOH.

[4] = Chemical hydrolysis of esters by NaOH or KOH, followed by EPR; format: physicochemical; conditions: sodium hydroxide (NaOH), aqueous, EPR pre- and post-hydrolysis
Procedure: (§1) After 15 minutes, a 40 μl sample of water or oil was taken for EPR spectral analysis. […] The solution was neutralized with hydrochloric acid and added to 1 ml of water and 2 ml of octanol. The mixture was allowed to partition, and after 15 minutes, a 40 μl sample of water or oil was taken for EPR spectral analysis. EPR spectral were taken using a Varian E9 spectrophotometer. Sweep width was 100 G, frequency was 9.535 GHz, microwave power was […] and the modulation frequency was 100 Hz.
20 mg of ^14N-^15N-TE-TOPS was mixed in 1 ml of 10 mM KOH and allowed to incubate overnight at room temperature. The solution was neutralized with hydrochloric acid. EPR spectral were taken using a Varian E9 spectrophotometer. Sweep width was 100 G, frequency was 9.535 GHz, microwave power was […] and the modulation frequency was 100 Hz.

[5] = tested on: cultured rat cortical neurons; assay: Hemoglobin toxicity in cultured rat cortical neurons (MTT); format: cell-based; conditions: hemoglobin 10 uM, 24 hours
Procedure: E-TOPS is neuroprotective in a model of hemorrhagic transformation in stroke. Primary neuronal cultures were made from forebrains of fetal rat pups (embryonic day 15). The cells were dispersed by repeated mechanical trituration in neuronal culture medium (MEM Eagle (Sigma, M4526), supplemented with glutamine (2 mM), penicilin-streptomycine (50 Units/ml-0.05mg/ml), heat-inactivated horse serum (10%), fetal bovine serum (10%), glucose (0.5% or 28 mM). Following centrifugation (900 g; 5 min), the cells were placed onto poly-L-lysine-coated 96 well plates at a density of […]. Hemoglobin in saline was added at 10 uM final concentration and ETOPS were added at 10 uM, 1 uM, and 0.1 uM final concentration. 24 hours after incubation neuronal viability was quantitatively determined using the colorimetric MTT assay. MTT was added to each well such that the final concentration of the dye was 0.15 mg/ml. Plates were then returned to the incubator for 1 hour at which time unincorporated MTT was removed, and the plates allowed to air dry. The purple formazan product present in viable cells was then dissolved by adding acidified isopropanol (with 0.1 N HCl in) and the absorbance intensity (540 nm) was measured using a 96 well plate reader. % Control=(Test A540/Mean Control)×100%.

Rhino mouse = assay: Anti-wrinkle effect in Rhino mouse exposed to UVB; format: in vivo; conditions: compared with Retin-A
Procedure: To determine the advantage of CGN compared to commercially available topical therapies, BE-TOPS, Retin-A, and a placebo were administered to the skin of mice exposed to alternate days of UVB radiation.

[6] = Water/octanol partition measured by EPR; format: physicochemical; conditions: 15 minutes, TOPS = presumed product after NaOH hydrolysis of DE-TOPS
Procedure: as §1

[7] = Metabolism and excretion after topical application (EPR of urine and plasma); format: in vivo, mouse; conditions: after 6 hours; 10 day daily topical application
[8] = In vivo plasma half-life by EPR, co-administration of 14N E-TOPS and 15N Tempol
Procedure: Plasma half-life is measured by collecting the spectrum each minute for 60 to 90 minutes.

[9] = gold standard, previously shown; cited from earlier work
mice = assay: Acute toxicity LD50 / survival rate in mice; format: in vivo; conditions: mice, dosage of 2.0 mmol/kg
Description: (§2) As noted above, the practical, clinical application of unbound, small molecule nitroxides has been limited by the reduced activity in vivo and comparatively short in vivo half-life. The result of the reduced in vivo half-life is the need to administer a larger dose to achieve the same therapeutic or diagnostic effect.

[10] = Acute toxicity LD50 / survival rate in mice; format: in vivo; conditions: mouse, in vivo
Description: as §2

human Y-79 cells = assay: TNF-α induced apoptosis of Y-79 cells (annexin V flow cytometry); format: cell-based; conditions: Y-79 cell line, E-TOPS 100 μg/ml, TNF-α 5.0 ng/ml, 6, 24 and 48 hours
Procedure: The UV light induced apoptosis may be measured by a model in which apoptosis is induced by exposure to tumor necrosis factor alpha (TNF-α). […] Cultured human Y-79 cells were maintained at pH 7.4 in culture flasks in a mixture of amphotericin/penicillin/streptomycin treated (1% v/v) RPMI 1640 media with L-glutamine and 10% fetal bovine serum in an incubator under 10%-CO2/90%-air brood conditions at 37 degrees Celsius and 20% humidity. […] From this stock solution, 10 μl was added to 1 ml of the cell suspension solution so that the final concentration of ETOPS was 100 μg/ml of ETOPS. Human TNF-μ(10 μg/1 ml) was used to prepare serial media dilutions to obtain TNF-α concentrations of 5.0 ng/ml. Cell densities and viability were determined by trypan blue exclusion assay on a Zeiss inverted microscope to ensure cell concentrations prior to cytometric assaying. […]
Flow cytometric methods were employed to take advantage of annexin V's reversible and calcium-dependent binding to negatively charged phosphatidylserine (PS) residues in a 1:50 annexin to PS ratio. […] Total samplings averaged 5000 cell events counted out of sample populations averaging well over 1.0×10^6 cells/ml with statistics and regression analysis given for each set of sample quadrants using CellQuest softvare. […]

CCOC(=O)CC(C(=O)OCC)=C1CC(C)(C)N([O])C(C)(C)C1 [DE-TOPS, Di-ethyl-2,2,6,6-tetramethyl-1-oxy-4-piperidylidene-succinate]
distribution in skin layers compared to tempone (1-D EPR spatial image) [1]: enhanced visual distribution throughout the dermis and epidermis
skin thickening induced by UVB (histopathology) (hairless mice; 100 mM in petroleum base, topical daily 10 minutes prior to UVB, 11 days, 200 mJ/cm2): dramatically reduces skin thickening
UVB light induced skin thickening, hemorrhage, inflammation (hairless mice; applying pre and post radiation in mice): reduces UVB light induced skin thickening, hemorrhage, inflammation
UVB induced skin lesion, chronic (hairless mice; same mice kept for 4 month, applied 2 hour before UVB radiation): inhibited
inhibition of peroxynitrite-induced (SIN-1) toxicity on cortical neurons [2]: dose dependent inhibition
inhibition of nitration of HPA by peroxynitrite [3]: inhibited
hydrolysis of DE-TOPS to TOPS [4]: near complete conversion
inhibition of hemoglobin-induced toxicity of cortical neurons [5]: dose dependent inhibition
UVB sensitivity of treated skin (Rhino mouse): not UVB sensitive
partition coefficient (LogP) [6]: 1.7
EPR signal in urine compared with plasma [7]: stronger EPR signal

CC1(C)CC(=C(CC(=O)O)C(=O)O)CC(C)(C)N1[O] [TOPS, 2,2,6,6-tetramethyl-1-oxyl-piperidinene-4-succinate]
inhibition of peroxynitrite-induced (SIN-1) toxicity on cortical neurons [2]: dose dependent inhibition
inhibition of nitration of HPA by peroxynitrite [3]: inhibited
inhibition of hemoglobin-induced toxicity of cortical neurons [5]: dose dependent inhibition
partition coefficient (LogP) [6]: −0.9

CC1(C)CC(O)CC(C)(C)N1[O] [Tempol, 4-hydroxy-2,2,6,6-tetramethylpiperidine-1-oxyl]
half-life ([8]; mouse, in vivo, ip, 80 mg/kg): > 40 min
prevention of nitration of HPA by peroxynitrite in vitro [9]: prevent the nitration
survival rate (mice): zero survival rate
LD50 [10]: 375 mg/kg

monoethyl-2,2,6,6-tetramethyl-1-oxy-4-piperidylidene-succinate [E-TOPS]
inhibition of peroxynitrite-induced (SIN-1) toxicity on cortical neurons [2]: dose dependent inhibition
in vivo half-life compared to Tempol ([8]; intravenous, intramuscular, oral and intraperitoneal administration at 200 mg/kg): increased in vivo half-life compared to Tempol
in vivo plasma half-life compared to Tempol ([8]; mice, administered orally, 125 mg/kg E-TOPS and 80 mg/kg Tempol): extended
in vivo plasma half-life compared to Tempol ([8]; mice, co-administrated intravenously): extended
time with substantially higher activity than Tempol in plasma ([8]; mice, i.p., 125 mg/kg E-TOPS co-administered with Tempol): at least 80 minutes
in vivo plasma half-life compared to Tempol ([8]; mice, intramuscular co-administration): dramatically extended over Tempol for at least 60 minutes
inhibition of nitration of HPA by peroxynitrite [3]: inhibited
apoptosis induced by TNF-α (human Y-79 cells): reduces apoptosis
inhibition of hemoglobin-induced toxicity of cortical neurons [5]: dose dependent inhibition
neuronal viability ([5]; ETOPS at 10 uM, 1 uM, 0.1 uM): increased neuronal viability
